From patent US7399871B2, “Crystal forms of (S)-(+)-N,N-dimethyl-3-(1-naphthalenyloxy)-3-(2-thienyl)propanamine oxalate and the preparation thereof” (Teva Pharmaceutical Industries Ltd., priority 2005, dated 2008)

Assay: Storage stability of DNT-Oxal crystal forms (polymorphic form by XRD)
Assay type: physicochemical
Details: stored at room temperature for 11 months; for Crystal form after the storage: crystal form before vs after the storage, oxalate
Experimental: Crystal forms of DNT-Oxal were stored at room temperature for 11 months. […] The forms of DNT-Oxal were identified using a Scintag X-ray powder diffractometer model X'TRA with a Cu-tube solid state detector. The sample holder was a round standard aluminum sample holder with rough zero background quartz plate with a cavity having a diameter of 25 mm and a depth of 0.5 mm. The scanning parameters were as follows: a range of 2° to 40° 2θ; a continuous scan mode, and a step size of 0.05° at a rate of 3°/minute.

Polymorphic stability on storage	Crystal form after the storage	Compound
polymorphically stable	Form II	CN(C)CC[C@H](Oc1cccc2ccccc12)c1cccs1.O=C(O)C(=O)O [Form II, (S)-(+)-N,N-Dimethyl-3-(1-naphthalenyloxy)-3-(2-thienyl)propanamine oxalate]
polymorphically stable	Form III	CN(C)CC[C@H](Oc1cccc2ccccc12)c1cccs1.O=C(O)C(=O)O [Form III, (S)-(+)-N,N-Dimethyl-3-(1-naphthalenyloxy)-3-(2-thienyl)propanamine oxalate]
